In patent US20170071902A1, “NOX INHIBITOR AND NFkB INHIBITOR CONTAINING METHOXYFLAVONE” (SUNTORY HOLDINGS LIMITED, priority 2014, published 2017):
Where two headings read alike, the source gives them in different places.

Assays:
NOX (NADPH oxidase) = target: T1, NOX (NADPH oxidase) (Homo sapiens, UniProt P04839); experiment: NOX activity measurement in a cell-free system using a homogenate of differentiated HL-60 cells (NADPH consumption, fluorometry); assay type: biochemical; settings: for NOX inhibitory activity (distribution %): share of the black ginger extract's NOX inhibitory activity per compound
T1 construct: endogenous in cells; host or cells: HL-60 cells differentiated with 1% DMSO, used as a sonicated homogenate supernatant (A1) or as viable cells (A2)
T1 sequence (P04839 2-570 limits assumed): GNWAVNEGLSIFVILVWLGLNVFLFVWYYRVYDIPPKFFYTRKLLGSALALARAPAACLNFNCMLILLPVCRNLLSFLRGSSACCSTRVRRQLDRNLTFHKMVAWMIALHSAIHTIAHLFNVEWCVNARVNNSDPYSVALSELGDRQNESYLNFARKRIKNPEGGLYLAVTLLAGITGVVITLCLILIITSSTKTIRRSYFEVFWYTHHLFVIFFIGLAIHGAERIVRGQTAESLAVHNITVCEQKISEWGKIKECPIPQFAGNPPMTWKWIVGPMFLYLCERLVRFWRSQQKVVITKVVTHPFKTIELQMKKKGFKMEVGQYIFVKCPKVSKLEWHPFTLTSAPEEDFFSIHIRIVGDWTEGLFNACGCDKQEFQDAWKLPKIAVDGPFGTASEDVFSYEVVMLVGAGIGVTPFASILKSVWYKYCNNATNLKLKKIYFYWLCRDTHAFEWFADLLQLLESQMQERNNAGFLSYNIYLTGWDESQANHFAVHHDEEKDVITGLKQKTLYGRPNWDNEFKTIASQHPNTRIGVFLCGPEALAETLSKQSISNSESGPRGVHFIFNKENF
T1 sequence (P13498 2-195 partner limits assumed): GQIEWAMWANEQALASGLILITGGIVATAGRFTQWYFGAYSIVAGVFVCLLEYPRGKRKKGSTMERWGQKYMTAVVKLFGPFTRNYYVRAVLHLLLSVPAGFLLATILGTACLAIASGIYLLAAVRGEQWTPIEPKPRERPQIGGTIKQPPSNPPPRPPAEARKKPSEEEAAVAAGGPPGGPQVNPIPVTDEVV
Text: Human myeloid leukemia cell HL-60 repeats proliferation in an undifferentiated state but upon addition of DMSO (dimethyl sulfoxide), retinoic acid or the like, it is known to differentiate into mature granulocytes and lose the ability to proliferate, as accompanied by intracellular expression of NOX (NADPH oxidase) which also serves as an index for differentiation; the expressed NOX can be utilized as an enzyme source for evaluating NOX inhibitory activity.
To induce differentiation into NOX expressing granulocytes, undifferentiated HL-60 cells cultured in a 10% FBS supplemented RPMI 1640 medium were suspended in a 1% DMSO containing, 10% FBS supplemented RPM 11640 medium to give a density of 5×10^5 cells/ml, and the suspension was distributed among Petri dishes (i.d. 10 cm) in 15 ml portions and cultured in a CO2 incubator (37° C.) for three days; thereafter, 10 ml of a 1% DMSO containing, 10% FBS supplemented RPM 11640 medium was added into each of the Petri dishes and culture was performed for an additional three days, thus yielding differentiated HL-60 cells in which NOX was expressed. As described below, the differentiated HL-60 cells, either as a homogenate or in a viable state, were subjected to NOX activity measurement.
After being cooled with ice, the suspension was treated with a sonicator (Bioruptor UCD-250 HSA; product of Cosmo Bio Co., Ltd.) by repeating three cycles of a process under the condition of 4° C. or below that consisted of 20-sec disrupting at maximum power and 30-sec interval cooling, whereupon a cell homogenate was obtained. The homogenate was centrifuged at 1000 g for 4 minutes to remove debris; to the resulting supernatant, nine volumes of a reaction buffer (65 mM phosphate buffered solution containing 1 mM EGTA, 10 μM FAD and 170 mM sucrose; pH 7.0) were added to prepare a homogenate's supernatant for NOX activity measurement (equivalent to 1×10^7 cells/ml).
For reaction with NOX, 50 μl of the above-described cell homogenate was poured into each well of a 96-well microplate and after adding 25 μl of a 0.5 mM SDS solution as a NOX activator and 25 μl of a 0.4 mM NADPH solution as a substrate, the reaction was carried out at 25° C. for 30-90 minutes. The NOX activity was determined by measuring the rate of NADPH consumption through fluorometry (Ex: 355 nm/Em: 460 nm).

NFκB = NFκB inhibiting action: nitrous acid production in LPS-stimulated RAW 264.7 cells (Griess reagent); assay type: cell-based; settings: Mus musculus, RAW264.7, 24 h; read-out: NFκB inhibition IC50
Description: It is known that when macrophage-like RAW 264.7 cells are stimulated with LPS (lipopolysaccharide), NFκB is activated, whereby the expression of iNOS (inducible NO synthetase) is enhanced, causing nitrous acid to accumulate in the culture broth due to the enzymatic activity of iNOS; the activation of NFκB can therefore be evaluated by measuring the buildup of nitrous acid in the culture broth.
RAW 264.7 cells were cultured in a 10% FBS supplemented RPMI 1640 culture broth. The cells were then suspended in the same culture broth to give a density of 4×10^5 cells/ml; the suspension was distributed on a 96-well microplate in 100 μl portions per well and subjected to pre-culture (in a CO2 incubator) for 24 hr. […] To measure NFκB inhibitory activity, a DMSO solution of each test sample was dissolved in the foregoing culture broth to make 3-fold serial dilutions having DMSO concentrations of 1% and less and absorbance was measured with and without adding the stimulant LPS.

[1] = Example 4, cell-free system using a homogenate of differentiated HL-60 cells, methoxyflavonoid comparison, read-out: IC50 (μM), NOX inhibitory activity
[2] = cell-free system using a homogenate
[3] = Example 5, cell-free system using a homogenate, compounds extracted and fractionated from black ginger, read-out: NOX inhibition IC50

With `COc1cccc(/C=C/C(=O)c2ccccc2O)c1OC` [2,3-Dimethoxy-2′-hydroxychalcone] the IC50 (NOX (NADPH oxidase); [1]) was > 100 µM.

With `COc1ccc(CCC(=O)c2c(O)cc(OC)cc2O)cc1` [2′,6′-Dihydroxy-4,4′-dimethoxydihydrochalcone] the IC50 (NOX (NADPH oxidase); [1]) was > 100 µM.

For `COc1cc(O)c(C(=O)/C=C/c2ccccc2)c(O)c1` [2′,6′-Dihydroxy-4′-methoxychalcone], the IC50 (NOX (NADPH oxidase); [1]) was > 100 µM.

With `COc1ccc2c(=O)c(OC)c(-c3ccc(OC)c(OC)c3)oc2c1` [3,7,3′,4′-tetramethoxyflavone] the IC50 (NOX (NADPH oxidase); [1]) was > 100 µM.

In the case of `CC(=O)c1cc2ccccc2oc1=O` [3-Acetylcoumarin], the IC50 (NOX (NADPH oxidase); [1]) is reported as > 100 µM.

`O=c1cc(-c2ccc(O)c(O)c2)oc2ccccc12` [3′,4′-Dihydroxyflavone] gave an IC50 (NOX (NADPH oxidase); [1]) of 75 µM.

In the case of `COc1ccc(-c2cc(=O)c3ccccc3o2)cc1OC` [3′,4′-Dimethoxyflavone], the IC50 (NOX (NADPH oxidase); [1]) is reported as 15 µM.

In the case of `COc1ccc(/C=C/C(=O)c2ccccc2)cc1` [4-Methoxychalcone], the IC50 (NOX (NADPH oxidase); [1]) is reported as > 100 µM.

In the case of `COc1ccc(C(=O)/C=C/c2ccccc2)cc1` [4′-Methoxychalcone], the IC50 (NOX (NADPH oxidase); [1]) is reported as > 100 µM.

`COc1cc(-c2cc(=O)c3c(OC)c(OC)c(OC)cc3o2)cc(OC)c1OC` [5,6,7,3′,4′,5′-Hexamethoxyflavone] gave an IC50 (NOX (NADPH oxidase); [1]) of ~100 µM.

`COc1ccc(-c2cc(=O)c3c(OC)c(OC)c(OC)c(OC)c3o2)cc1OC` [5,6,7,8,3′,4′-Hexamethoxyflavone] was tested, and the IC50 (NOX (NADPH oxidase); [1]) was 80 µM and the “NOX inhibitory activity (in words)” value (NOX (NADPH oxidase); [2]) was “not found to have any strong NOX inhibitory activity”.

For `COc1cc(OC)c2c(=O)cc(-c3cc(OC)c(OC)c(OC)c3)oc2c1` [5,7,3′,4′,5′-Pentamethoxyflavone], the IC50 (NOX (NADPH oxidase); [1]) was > 100 µM.

In the case of `COc1ccc(-c2oc3cc(O)cc(O)c3c(=O)c2OC)cc1O` [5,7,3′-Trihydroxy-3,4′-dimethoxyflavone], the IC50 (NOX (NADPH oxidase); [1]) is reported as ~100 µM.

`COc1cc(C2CC(=O)c3c(O)cc(O)cc3O2)cc(OC)c1OC` (centres unmarked) [5,7-Dihydroxy-3′,4′,5′-trimethoxyflavanone] was tested, and the IC50 (NOX (NADPH oxidase); [1]) was > 100 µM.

With `COc1cc(C)c2c(=O)c(-c3ccccc3)coc2c1` [5-Methyl-7-methoxy-isoflavone] the IC50 (NOX (NADPH oxidase); [1]) was > 100 µM.

For `O=c1cc(-c2ccc(O)c(O)c2)oc2c(O)c(O)ccc12` [7,8,3′,4′-Tetrahydroxyflavone], the IC50 (NOX (NADPH oxidase); [1]) was ~100 µM.

`COc1ccc(-c2cc(=O)c3ccc(OC)c(OC)c3o2)cc1OC` [7,8,3′,4′-Tetramethoxyflavone] gave an IC50 (NOX (NADPH oxidase); [1]) of ~100 µM.

`COc1cc2ccc(=O)oc2c(C(C)=O)c1OC` [8-Acetyl-6,7-dimethoxycoumarin] was tested, and the IC50 (NOX (NADPH oxidase); [1]) was > 100 µM.

For `COc1c(O)cc2ccc(=O)oc2c1C(C)=O` [8-Acetyl-6-hydroxy-7-methoxycoumarin], the IC50 (NOX (NADPH oxidase); [1]) was > 100 µM.

In the case of `CC(=O)c1c(O)ccc2ccc(=O)oc12` [8-Acetyl-7-hydroxycoumarin], the IC50 (NOX (NADPH oxidase); [1]) is reported as > 100 µM.

`COc1ccc2ccc(=O)oc2c1C(C)=O` [8-Acetyl-7-methoxycoumarin] was tested, and the IC50 (NOX (NADPH oxidase); [1]) was > 100 µM.

`COc1cc(OC)c2c(=O)cc(-c3ccc(OC)c(OC)c3)oc2c1` [KPEt-21, 5,7,3′,4′-Tetramethoxyflavone] was tested, and the IC50 (NOX (NADPH oxidase); [1]) was 8 µM, the IC50 (NOX (NADPH oxidase); [3]) was 38 µM and the “NOX inhibitory activity (distribution %)” value (NOX (NADPH oxidase); Example 5) was 12%. The “NOX inhibitory activity (in words)” value (NOX (NADPH oxidase); [2]) was “strong NOX inhibitory activity” and the IC50 (NFκB) was 6 µM.

For `COc1cc(OC)c2c(=O)c(OC)c(-c3ccc(OC)c(OC)c3)oc2c1` [KPEt-22, 3,5,7,3′,4′-Pentamethoxyflavone], the IC50 (NOX (NADPH oxidase); [1]) was 23 µM, the IC50 (NOX (NADPH oxidase); [3]) was 70 µM and the “NOX inhibitory activity (distribution %)” value (NOX (NADPH oxidase); Example 5) was 45%. The “NOX inhibitory activity (in words)” value (NOX (NADPH oxidase); [2]) was “strong NOX inhibitory activity” and the IC50 (NFκB) was 32 µM.

In the case of `COc1cc(OC)c2c(=O)cc(-c3ccccc3)oc2c1` [KPEt-23, 5,7-Dimethoxyflavone], the IC50 (NOX (NADPH oxidase); [3]) is reported as 53 µM, the “NOX inhibitory activity (distribution %)” value (NOX (NADPH oxidase); Example 5) is reported as 19% and the IC50 (NFκB) is reported as 7 µM.

`COc1ccc(-c2cc(=O)c3c(OC)cc(OC)cc3o2)cc1` [KPEt-25, 5,7,4′-Trimethoxyflavone] was tested, and the IC50 (NOX (NADPH oxidase); [3]) was 53 µM, the “NOX inhibitory activity (distribution %)” value (NOX (NADPH oxidase); Example 5) was 21% and the IC50 (NFκB) was 7 µM.

With `COc1cc(O)c2c(=O)c(OC)c(-c3ccc(OC)c(OC)c3)oc2c1` [KPEt-41, 5-hydroxy-3,7,3′,4′-Tetramethoxyflavone] the IC50 (NOX (NADPH oxidase); [3]) was > 100 µM and the IC50 (NFκB) was 55 µM.

With `COc1cc(OC)c2c(=O)c(OC)c(-c3ccccc3)oc2c1` [KPEt-261, 3,5,7-Trimethoxyflavone] the IC50 (NOX (NADPH oxidase); [3]) was > 100 µM and the IC50 (NFκB) was 27 µM.

`COc1ccc(-c2oc3cc(OC)cc(OC)c3c(=O)c2OC)cc1` [KPEt-262, 3,5,7,4′-Tetramethoxyflavone] was tested, and the IC50 (NOX (NADPH oxidase); [3]) was > 100 µM and the IC50 (NFκB) was 32 µM.

In the case of `COc1cc(O)c2c(=O)cc(-c3ccccc3)oc2c1` [KPEt-421, 5-hydroxy-7-Methoxyflavone], the IC50 (NOX (NADPH oxidase); [3]) is reported as > 100 µM and the IC50 (NFκB) is reported as 42 µM.

`COc1ccc(-c2cc(=O)c3c(O)cc(OC)cc3o2)cc1` [KPEt-422, 5-hydroxy-7,4′-Dimethoxyflavone] was tested, and the IC50 (NOX (NADPH oxidase); [3]) was > 100 µM and the IC50 (NFκB) was 56 µM.

For `COc1cc(O)c2c(=O)c(OC)c(-c3ccccc3)oc2c1` [KPEt-431, 5-hydroxy-3,7-Dimethoxyflavone], the IC50 (NOX (NADPH oxidase); [3]) was > 100 µM and the IC50 (NFκB) was 29 µM.

`COc1ccc(-c2oc3cc(OC)cc(O)c3c(=O)c2OC)cc1` [KPEt-432, 5-hydroxy-3,7,4′-Trimethoxyflavone] was tested, and the IC50 (NOX (NADPH oxidase); [3]) was > 100 µM and the IC50 (NFκB) was 30 µM.

Compound `CC(=O)OC(C)(C)[C@@H]1Cc2c(ccc3ccc(=O)oc23)O1` [o-Acetylcolumblanetin] has an IC50 (NOX (NADPH oxidase); [1]) of 19 µM.
